Results taken from PMC3425516 (PLoS ONE, 2012).
“And” between values parts separate entries of the source, which are not always exact repeats. Equal entries are not always repeated.

Experiments:
[1] = molecular target: recombinant human HDAC2 (Homo sapiens, UniProt Q92769); assay: HDAC biochemical assay (fluorogenic); conditions: Class I, mean±SE
Description: (§4) The HDACs in vitro activities of recombinant human HDAC 1, 2, 4, 6 and 8 (BPS Biosciences) were detected by fluorigenic release of 7-amino-4-methylcoumarin from substrate upon deacetylase enzymatic activity.

[2] = test system: HDACs in HeLa nuclear extracts; assay: HeLa nuclear extract HDAC activity assay; type: biochemical
Description: The HeLa nuclear extract HDAC activity was measured by using the HDAC Fluorescent Activity Assay Kit (BioVision, CA, USA) according to manufacturer’s instructions. Briefly, the HDAC fluorometric substrate and assay buffer were added to HeLa nuclear extracts in a 96-well format and incubated at 37°C for 30 min. The reaction was stopped by adding lysine developer, and the mixture was incubated for another 30 min at 37°C. Additional negative controls included incubation without the nuclear extract, without the substrate, or without both. TSA at 1 µM served as the positive control.

[3] = test system: total HDAC activity in HCT116 cells; assay: Total HDACs enzymatic activity assay in treated cells; type: cell-based, human; conditions: HCT116 cells treated 24 h
Description: Total HDACs enzyme activity was determined using the Boc-Lys(Ac)-AMC fluorometric HDAC activity assay kit (BioVision, Mountain View, CA, USA).

[4] = test system: NCI-ADR cells; assay: Sulforhodamine B cell growth assay; type: cell-based; conditions: Homo sapiens, NCI/ADR-RES, SRB assay, 48 h
Description: (§1) HCT116, MDAMB231 and NCI-ADR cells were seeded in 96-well plates in medium with 5% fetal bovine serum overnight. Cells were fixed with 10% trichloroacetic representing cell population at the time of drug treatment (T 0). […] Excess Sulforhodamine B was washed away by 1% acetic acid and dye-containing cells were lysed with 10 mmol/L Trizma base. […] By measuring time zero (T 0), control growth (C), and cell growth in the presence of the drug (Tx), the percentage growth was calculated. Percentage growth inhibition was calculated as 100-[(Tx–T 0)/(C-T 0)]×100.

[5] = test system: HCT116 cells; assay: Sulforhodamine B cell growth assay; type: cell-based; conditions: Homo sapiens, HCT-116; HCT116, SRB assay, 48 h, mean±S.E.M.; read-out: GI50
Description: as §1

[6] = test system: MDAMB231 cells; assay: Sulforhodamine B cell growth assay; type: cell-based; conditions: Homo sapiens, MDA-MB-231; MDAMB231, SRB assay, 48 h
Description: as §1

[7] = test system: SK-OV-3; assay: NCI-60 cell lines screening; type: cell-based, human; conditions: SK-OV-3, Ovarian Cancer panel
Description: (§2) The NCI-60 cancer cell lines screening was conducted by the NCI’s Developmental Therapeutics Program (DTP; http://www.dtp.nci.nih.gov/branches/btb/ivclsp.html).

[8] = test system: NCI-H322M; assay: NCI-60 cell lines screening; type: cell-based, human; conditions: Non-Small Cell Lung Cancer panel
Description: as §2

[9] = test system: SR; assay: NCI-60 cell lines screening; type: cell-based, human; conditions: Leukemia panel
Description: as §2

[10] = test system: A549/ATCC; assay: NCI-60 cell lines screening; type: cell-based, human; conditions: Non-Small Cell Lung Cancer panel
Description: as §2

[11] = test system: K-562; assay: NCI-60 cell lines screening; type: cell-based, human; conditions: K-562, Leukemia panel
Description: as §2

[12] = test system: LOX IMVE; assay: NCI-60 cell lines screening; type: cell-based, human; conditions: Melanoma panel
Description: as §2

[13] = test system: SK-MEL-2; assay: NCI-60 cell lines screening; type: cell-based, human; conditions: SK-MEL-2, Melanoma panel
Description: as §2

[14] = test system: SF-295; assay: NCI-60 cell lines screening; type: cell-based, human; conditions: SF-295, CNS Cancer panel
Description: as §2

[15] = test system: DU-145; assay: NCI-60 cell lines screening; type: cell-based, human; conditions: DU-145, Prostate Cancer panel
Description: as §2

[16] = test system: U251; assay: NCI-60 cell lines screening; type: cell-based, human; conditions: U251, CNS Cancer panel
Description: as §2

[17] = molecular target: recombinant human HDAC4 (Homo sapiens, UniProt P56524); assay: biochemical
Chain of recombinant human HDAC4 (P56524 whole entry): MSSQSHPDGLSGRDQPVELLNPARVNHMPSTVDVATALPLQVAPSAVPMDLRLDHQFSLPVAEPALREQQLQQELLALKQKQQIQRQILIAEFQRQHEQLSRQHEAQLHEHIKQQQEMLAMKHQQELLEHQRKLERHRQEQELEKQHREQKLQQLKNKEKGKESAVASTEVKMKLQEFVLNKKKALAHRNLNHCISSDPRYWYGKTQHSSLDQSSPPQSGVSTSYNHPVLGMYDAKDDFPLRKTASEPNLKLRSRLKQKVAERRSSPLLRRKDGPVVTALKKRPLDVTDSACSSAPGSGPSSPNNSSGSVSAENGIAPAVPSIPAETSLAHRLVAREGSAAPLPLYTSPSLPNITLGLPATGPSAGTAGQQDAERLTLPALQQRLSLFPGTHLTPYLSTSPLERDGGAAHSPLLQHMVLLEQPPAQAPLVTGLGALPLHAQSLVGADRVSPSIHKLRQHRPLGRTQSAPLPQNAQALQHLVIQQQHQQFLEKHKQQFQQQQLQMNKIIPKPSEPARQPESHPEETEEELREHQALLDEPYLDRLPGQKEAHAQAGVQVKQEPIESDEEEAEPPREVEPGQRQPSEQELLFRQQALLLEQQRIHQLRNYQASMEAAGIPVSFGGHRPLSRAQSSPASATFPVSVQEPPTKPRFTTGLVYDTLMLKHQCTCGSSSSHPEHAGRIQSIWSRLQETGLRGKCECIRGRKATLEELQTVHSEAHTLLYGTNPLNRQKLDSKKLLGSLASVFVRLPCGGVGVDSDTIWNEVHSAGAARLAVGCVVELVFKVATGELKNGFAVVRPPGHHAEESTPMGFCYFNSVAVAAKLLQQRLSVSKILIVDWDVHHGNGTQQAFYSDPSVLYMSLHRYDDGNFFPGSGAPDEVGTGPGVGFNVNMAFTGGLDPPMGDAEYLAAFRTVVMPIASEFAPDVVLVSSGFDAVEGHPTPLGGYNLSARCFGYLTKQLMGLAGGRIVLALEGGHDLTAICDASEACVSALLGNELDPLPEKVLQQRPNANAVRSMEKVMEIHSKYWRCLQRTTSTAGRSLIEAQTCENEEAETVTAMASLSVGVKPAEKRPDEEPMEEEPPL
Description: as §4

[18] = test system: human HCT116 colorectal cancer xenograft; assay: HCT116 xenograft, tumor growth inhibition after 15 days dosing; type: in vivo, nude mice
Description: The human HCT116 colorectal adenocarcinoma cells used for implantation were harvested during log phase growth and resuspended in phosphate-buffered saline at 5×10^7 cells/mL. Each mouse was injected s.c. in the right flank with 1.0×10^7 cells (0.2 mL cell suspension). Tumors were monitored twice weekly and then daily as their volumes approached 1,200 mm^3. Tumor size, in mm^3, was calculated from: where w = width and l = length in mm of the tumor. Tumor volume = (w^2×l)/2.
The tumor growth curves show the group median tumor volume, on a log scale as a function of time.
(§3) Once a tumor was palpable with the size of approximately 55 mm^3, mice were randomized into vehicle control and treatment groups (8 mice per group). Control mice received the vehicle (0.5% carboxymethyl cellulose +0.1% Tween 80). Tumors in all 3 groups were allowed to reach an endpoint volume of 1,200 mm^3.

[19] = Body weight and adverse effects in xenograft study; type: in vivo, nude mice; conditions: HCT116 xenograft mice, oral daily treatment
Description: (A) Tumors were measured regularly and growth delay was calculated for treatment groups relative to control tumors (TGD). (B) Kaplan-Meier survival analysis was based on the tumor growth endpoint. (C) Inhibition of tumor growth curves represented a mean±SEM and percentage change in mean tumor volume (percent TGI). (D) Body weights were measured daily during the first week and then 2 times per week. The body weight ratio was calculated relative to the baseline measurement.
as §3

[20] = test system: HL-60 (TB); assay: NCI-60 cell lines screening; type: cell-based; conditions: Leukemia panel
Description: as §2

[21] = test system: NCI-H460; assay: NCI-60 cell lines screening; type: cell-based; conditions: Homo sapiens, NCI-H460, Non-Small Cell Lung Cancer panel
Description: as §2

[22] = Homo sapiens, read-out: LC50 (the source's name)

Chain of recombinant human HDAC2 (Q92769 whole entry): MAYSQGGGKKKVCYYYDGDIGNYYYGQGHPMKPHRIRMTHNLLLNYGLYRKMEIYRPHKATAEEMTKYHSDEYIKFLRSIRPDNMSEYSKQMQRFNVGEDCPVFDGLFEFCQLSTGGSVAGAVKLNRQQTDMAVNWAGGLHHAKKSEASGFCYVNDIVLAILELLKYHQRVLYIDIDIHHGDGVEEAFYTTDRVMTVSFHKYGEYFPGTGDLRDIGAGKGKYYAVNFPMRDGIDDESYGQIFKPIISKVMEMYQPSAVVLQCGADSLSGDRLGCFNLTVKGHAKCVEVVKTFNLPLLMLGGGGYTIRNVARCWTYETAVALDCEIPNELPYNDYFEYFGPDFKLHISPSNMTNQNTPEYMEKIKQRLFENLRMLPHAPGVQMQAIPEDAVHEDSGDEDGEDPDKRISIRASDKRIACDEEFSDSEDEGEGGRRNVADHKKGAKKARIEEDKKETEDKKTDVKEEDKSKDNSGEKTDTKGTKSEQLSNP

O=C(C=Cc1ccc2c(c1)CCN2S(=O)(=O)c1ccccc1)NO [MPT0E028, 3-(1-benzenesulfonyl-2,3-dihydro-1H-indol-5-yl)-N-hydroxy-acrylamide]
IC50 [1]: 106 ± 23 nM | times more potent than SAHA in HDAC activity inhibition ([2]; HeLa and HCT116 cells, relative to SAHA): 9–30 times and 10–30 times | IC50 ([2]; HeLa nuclear extract): 11.1 nM | IC50 [3]: 4430 ± 500 nM | GI50 [4]: 140 ± 20 nM | GI50 [5]: 90 ± 4 nM | GI50 [6]: 190 ± 40 nM | GI50 ([7]; Homo sapiens): 190 nM | CC50 [7, 22]: 4260 nM | TGI [7]: 601 nM | GI50 ([8]; Homo sapiens): 186 nM | CC50 [8, 22]: > 100000 nM | TGI [8]: 11400 nM | GI50 ([9]; Homo sapiens): 60.1 nM | CC50 [9, 22]: > 100000 nM | TGI [9]: >100000 nM | GI50 ([10]; Homo sapiens): 230 nM | CC50 [10, 22]: 9030 nM | TGI [10]: 1090 nM | GI50 ([11]; Homo sapiens, K562): 115 nM | CC50 ([11]; Homo sapiens, K562, read-out: LC50 (the source's name)): > 100000 nM | TGI [11]: >100000 nM | GI50 ([12]; Homo sapiens): 222 nM | CC50 [12, 22]: 2880 nM | TGI [12]: 718 nM | GI50 ([13]; Homo sapiens): 433 nM | CC50 [13, 22]: 34900 nM | TGI [13]: 3890 nM | GI50 ([14]; Homo sapiens): 60.3 nM | CC50 [14, 22]: 2430 nM | TGI [14]: 340 nM | TGI [15]: 1920 nM | GI50 ([15]; Homo sapiens): 179 nM | CC50 [15, 22]: > 100000 nM | GI50 ([16]; Homo sapiens, U-251): 199 nM | CC50 ([16]; Homo sapiens, U-251, read-out: LC50 (the source's name)): 3760 nM | TGI [16]: 820 nM | IC50 [17]: > 10000 nM | percent tumor growth inhibition (%TGI) ([18]; 100 mg/kg oral once a day for 15 days): 32.0% | percent tumor growth inhibition (%TGI) ([18]; 200 mg/kg oral once a day for 15 days): 73.5% | body weight and other adverse effects [19]: No significant difference in body weight or other adverse effects | GI50 ([20]; Homo sapiens): 439 nM | CC50 [20, 22]: > 100000 nM | TGI [20]: >100000 nM | GI50 [21]: 144 nM | CC50 ([21]; read-out: LC50 (the source's name)): 21600 nM
